# Measured values published in US10086030B2, “Use of composition in preparing health care products or medicines for preventing and treating allergic diseases” (JIANGZHONG PHARMACEUTICAL CO., LTD., priority 2012, dated 2018).
# Several values for one entry are separate records, joined by “and”; a condition that tells them apart may be missing. Equal entries are not always repeated.
# Experiments:
# [1] = tested on: delayed hypersensitivity in mouse auricle skin caused by 2,4-dinitrochlorobenzene; assay: Delayed hypersensitivity in mouse auricle skin caused by 2,4-dinitrochlorobenzene; format: in vivo, Kunming mice; settings: mice
# Description: A 5% 2,4-dinitrochlorobenzene solution in ethanol was applied onto the abdominal skin (shaved) of the mice for sensitization. […] 7 days after sensitization, a 1% 2,4-dinitrochlorobenzene solution was applied onto the right ear, and the mice were sacrificed after 24 hours, and both ears were cut off along the auricle baseline. Discs having a diameter of 8 mm were punctured out at the same position on both ears, precisely weighed on an electronic balance, and the weight difference between the left and right ears was taken as the value for delayed hypersensitivity.
# [2] = tested on: local itching in mice caused by low-molecular-weight dextran; assay: Local itching in mice caused by low-molecular-weight dextran; format: in vivo, Kunming mice
# Description: Intragastric administration was carried out to the mice once per day for 10 consecutive days. 30 min after the final administration, a 0.0125% low-molecular-weight dextran solution was injected at 0.1 g/10 g into the tail vein. The number of itching events (itching events were indicated by scratching on the head with front paws, scratching on the body with hind paws, and biting on various parts over the body) occurred within 30 min after injection with the low-molecular-weight dextran solution into tail veins of the mice in each group was observed and recorded. […] The number of itching events (itching events were indicated by scratching on the head with front paws, scratching on the body with hind paws, and biting on various parts over the body) occurred within 30 min after injection with the low-molecular-weight dextran solution into tail veins of the mice in each group was observed and recorded. […] The number of itching events (itching events were indicated by scratching on the head with front paws, scratching on the body with hind paws, and biting on various parts over the body) occurred within 30 min after injection with the low-molecular-weight dextran solution into tail veins of the mice in each group was observed and recorded. […] The number of itching events (itching events were indicated by scratching on the head with front paws, scratching on the body with hind paws, and biting on various parts over the body) occurred within 30 min after injection with the low-molecular-weight dextran solution into tail veins of the mice in each group was observed and recorded.
# [3] = tested on: passive anaphylaxis (PCA) in rats caused by ovalbumin; assay: Passive anaphylaxis (PCA) in rats caused by ovalbumin: diameter of blue spots, mast cell degranulation, serum histamine; format: in vivo, SD rats; settings: for Diameter of blue spots 1:4: 1:4 anti-ovalbumin serum; for Diameter of blue spots 1:8: 1:8 anti-ovalbumin serum
# Description: On day 15, the back of the rats were shaved, and was intradermally injected with a diluted antiserum at two spots on each side with 0.1 ml per spot. After 48 hours, a 1.0 ml mixed solution of 1% Evans Blue and 1% ovalbumin in physiological saline was injected into the tail vein of each rat. […] The rats were then sacrificed, and their back skin was inverted to measure the diameter of blue reaction spots to determine the difference between the dosing groups and the model group. A sample of the rat skin tissue was fixed with neutral formaldehyde, dehydrated with an alcohol gradient, embedded in paraffin, and examined for mast cell degranulation in the tissue[^3]. […] On day 15, the back of the rats were shaved, and was intradermally injected with a diluted antiserum at two spots on each side with 0.1 ml per spot. After 48 hours, a 1.0 ml mixed solution of 1% Evans Blue and 1% ovalbumin in physiological saline was injected into the tail vein of each rat. […] The rats were then sacrificed, and their back skin was inverted to measure the diameter of blue reaction spots to determine the difference between the dosing groups and the model group. A sample of the rat skin tissue was fixed with neutral formaldehyde, dehydrated with an alcohol gradient, embedded in paraffin, and examined for mast cell degranulation in the tissue^[3]. […] On day 15, the back of the rats were shaved, and was intradermally injected with a diluted antiserum at two spots on each side with 0.1 ml per spot. After 48 hours, a 1.0 ml mixed solution of 1% Evans Blue and 1% ovalbumin in physiological saline was injected into the tail vein of each rat. […] The rats were then sacrificed, and their back skin was inverted to measure the diameter of blue reaction spots to determine the difference between the dosing groups and the model group. A sample of the rat skin tissue was fixed with neutral formaldehyde, dehydrated with an alcohol gradient, embedded in paraffin, and examined for mast cell degranulation in the tissue^[3]. […] On day 15, the back of the rats were shaved, and was intradermally injected with a diluted antiserum at two spots on each side with 0.1 ml per spot. After 48 hours, a 1.0 ml mixed solution of 1% Evans Blue and 1% ovalbumin in physiological saline was injected into the tail vein of each rat. […] The rats were then sacrificed, and their back skin was inverted to measure the diameter of blue reaction spots to determine the difference between the dosing groups and the model group. A sample of the rat skin tissue was fixed with neutral formaldehyde, dehydrated with an alcohol gradient, embedded in paraffin, and examined for mast cell degranulation in the tissue^[3]. […] On day 15, the back of the rats were shaved, and was intradermally injected with a diluted antiserum at two spots on each side with 0.1 ml per spot. After 48 hours, a 1.0 ml mixed solution of 1% Evans Blue and 1% ovalbumin in physiological saline was injected into the tail vein of each rat. […] The rats were then sacrificed, and their back skin was inverted to measure the diameter of blue reaction spots to determine the difference between the dosing groups and the model group. A sample of the rat skin tissue was fixed with neutral formaldehyde, dehydrated with an alcohol gradient, embedded in paraffin, and examined for mast cell degranulation in the tissue^[3]. […] On day 15, the back of the rats were shaved, and was intradermally injected with a diluted antiserum at two spots on each side with 0.1 ml per spot. After 48 hours, a 1.0 ml mixed solution of 1% Evans Blue and 1% ovalbumin in physiological saline was injected into the tail vein of each rat. […] The rats were then sacrificed, and their back skin was inverted to measure the diameter of blue reaction spots to determine the difference between the dosing groups and the model group.
# [4] = prednisone 5.0 mg, Composition 6 study
# [5] = prednisone 5.0 mg, Composition 7 study
# [6] = prednisone 5.0 mg, Composition 8 study
compound,measurement,setting,value
C[C@]12C=CC(=O)C=C1CC[C@@H]1[C@@H]2C(=O)C[C@@]2(C)[C@H]1CC[C@]2(O)C(=O)CO [prednisone],swelling degree of mouse auricle discs,[1]; positive control prednisone 5.0 mg (5 mg/kg) i.g. once daily 10 days,5.07 ± 0.59 mg and 4.22 ± 0.96 mg and 4.80 ± 0.73 mg
same,swelling degree of mouse auricle discs,[1]; [4],4.62 ± 0.79 mg
same,swelling degree of mouse auricle discs,[1]; [5],4.84 ± 0.70 mg
same,swelling degree of mouse auricle discs,[1]; [6],4.60 ± 0.82 mg
same,Number of itching events (30 min),[2]; [4],15.43 ± 4.56
same,Number of itching events (30 min),[2]; [5],15.57 ± 5.33
same,Number of itching events (30 min),[2]; [6],14.88 ± 5.08
same,Number of itching events (30 min),"[2]; within 30 min after dextran, positive control prednisone 5.0 mg i.g. once daily 10 days",18.30 ± 4.62 and 14.25 ± 6.72 and 17.20 ± 4.08
same,Diameter of blue spots 1:4,[3]; [4],13.22 ± 1.90 mm
same,Diameter of blue spots 1:4,[3]; [5],12.48 ± 2.16 mm
same,Diameter of blue spots 1:4,[3]; [6],12.82 ± 2.62 mm
same,Diameter of blue spots 1:8,[3]; [4],8.65 ± 1.52 mm
same,Diameter of blue spots 1:8,[3]; [5],8.32 ± 1.63 mm
same,Diameter of blue spots 1:8,[3]; [6],8.54 ± 1.82 mm
same,Diameter of blue spots (mm) 1:4,"[3]; antiserum 1:4, positive control prednisone 5.0 mg (5 mg/kg) i.g. once daily 14 days",12.79 ± 1.88 mm and 11.94 ± 1.90 mm and 11.35 ± 1.74 mm
same,Diameter of blue spots (mm) 1:8,"[3]; antiserum 1:8, positive control prednisone 5.0 mg (5 mg/kg) i.g. once daily 14 days",6.72 ± 1.31 mm
same,Degranulation (mast cell),[3]; [4],19.80 ± 10.57
same,Histamine fluorescence (serum histamine content),[3]; [4],2.07 ± 0.76 mg·L
same,Degranulation (mast cell),[3]; [5],17.54 ± 11.23
same,Histamine fluorescence (serum histamine content),[3]; [5],2.11 ± 0.70 mg·L
same,Degranulation (mast cell),[3]; [6],17.95 ± 11.82
same,Histamine fluorescence (serum histamine content),[3]; [6],2.25 ± 0.76 mg·L
same,Degranulation (mast cell),"[3]; skin tissue, positive control prednisone 5.0 mg (5 mg/kg) i.g. once daily 14 days",22.54 ± 11.25 and 19.46 ± 8.72 and 21.33 ± 10.48
